The subject of one series is pancreatic islet. The conditions noted are these: same dose and schedule (150 mg/kg daily); cited from earlier work.
In series [1] the test system is RB-null melanoma cell line A2058. Kind of series: Clonogenic assay after IR, A2058. In kind it is cell-based, human. The conditions noted are these: 100 nM, IR 0-9 Gy. On the procedure: (§1) Data plotted is the area/cell ratio of PD0332991 treated cells to dimethyl sulfoxide (DMSO) treated cells. Error bars show standard error of the mean.
Clonogenic Assay: The clonogenic assay was performed as previously described (see Franken et al., Nature protocols, 1, 2315-1319 (2006)) with cells plated in a six-well plate at least 6 hours prior to treatment with CDK inhibitor for 24 hours, […] Cells were grown for 16 days, washed, fixed, and stained with crystal violet. Plates were then imaged using an Odyssey infrared scanner (Li-Cor Biosciences, Lincoln, Nebr., United States of America) and quantified using the accompanying software.

Series [2] relates to TyrRAS+Ink4a/Arf−/− melanoma. The conditions noted are these: mouse, in vivo; cited from earlier work.
For another series, the system named is tHDF (HS68) cells. Description: Clonogenic assay after IR, tHDF (HS68). In kind it is cell-based, human. The conditions noted are these: PD0332991 100 nM, 2BrIC 2 μM, CINK4 6 μM, IR 0-9 Gy. On the procedure:
FIG. 6A is a set of micrograph images of crystal violet stained cell cultures of cyclin-dependent kinase 4/6 (CDK4/6)-dependent cells (HS68) plated at different cell/well ratios and treated with either dimethyl sulfoxide (DMSO) as a negative control or with the selective CDK4/6 inhibitor 2-bromo-12,13-dihydro-5H-indolo[2,3-a]pyrrolo[3,4]carbazole-5,6-dione (2BrIC) at 2 μM for 24 hours prior to exposure to ionizing radiation at 0, 1.5, 3, 6, or 9 gray (Gy), as indicated.
as §1
FIG. 9A is a set of micrograph images of cell cultures of cyclin-dependent kinase 4/6 (CDK4/6)-dependent cells (HS68) plated at different cell/well ratios and pretreated with either dimethyl sulfoxide (DMSO) as a control or with the nonselective CDK4/6 inhibitor trans-4-[[6-ethylamino)-2-[[1-phenylmethyl)-1H-indol-5-yl]amino]-4-pyrimidinyl]amino]]-cyclohexanol (CINK4) at 6 μM for 24 hours prior to exposure to ionizing radiation at 0, 1.5, 3, 6, or 9 gray (Gy), as indicated. The plates were stained with crystal violet to visualize cell colonies.
Clonogenic Assay: The clonogenic assay was performed as previously described (see Franken et al., Nature protocols, 1, 2315-1319 (2006)) with cells plated in a six-well plate at least 6 hours prior to treatment with CDK inhibitor for 24 hours, with 6 Gy IR occurring 12 hours after initiation of CDK inhibitor exposure. Cells were grown for 16 days, washed, fixed, and stained with crystal violet. Plates were then imaged using an Odyssey infrared scanner (Li-Cor Biosciences, Lincoln, Nebr., United States of America) and quantified using the accompanying software.

A short description of series [3]: Serum/plasma levels after oral gavage. In kind it is in vivo, mice. On the procedure: Mass Spectrometry: Mice were dosed as described and tail vein nick performed to acquire 30 μL periphal blood. Blood was centrifuged to acquire 10 μL plasma, which was mixed with 100 μL ice cold methanol, centrifuged, and mixed with 10 μL of an internal control. Plasma levels were quantified based on standard curves derived in triplicate from known concentrations of wild type C57Bl/6 female mouse plasma unexposed to the measured drug. Quantification was performed using HPLC separation with triple quadrupole mass spectrometry normalizing results to measurement of the internal standard.

Series [4] deals with peripheral blood lineages. Kind of series: Peripheral blood counts after TBI. The conditions noted are these: for bone marrow protection: after IR; for protection/recovery of peripheral blood lineages: platelets, erythrocytes, myeloid cells, lymphocytes after IR. In kind it is in vivo, mice. As to the method:
For comparison, data from mice that had not been exposed to IR is also shown (lightly shaded bars). […] Error bars show standard error of the mean.
Data was prepared from weekly complete blood counts on tail vein bleeds. Asterisk(s) indicate statistical significance determined by a 2-sided t-test. Error bars are +/− the standard error of the mean.
For TBI experiments, mice were irradiated using a ^137Cs source (AECL Gammacell 40 Irradiator, Atomic Energy of Canada Ltd, Mississauga, Ontario, Canada). Delivered doses were at or near the empirically determined LD90 of 7.5 Gy, consistent with prior studies. See Na Nakorn et al., J. Clin. Invest., 109, 1579-1585 (2002); Herodin et al., Blood, 101, 2609-2616 (2003); Uckun et al., Blood, 75, 638-645 (1990); and Wang et al., Proc. Natl. Acad. Sci., USA, 94, 14590-14595 (1997). Peripheral blood was collected using a tail vein nick for complete blood cells (CBCs) and analyzed with a HemaTrue analyzer (Heska Co., Loveland, Colo., United States of America).
The peripheral blood of animals after IR exposure was studied to confirm that the improved survival was due to protection of hematopoietic lineages.

Series [5] has as its system KPTR1, KPTR4 and KPTR5 melanoma cell lines. Description: Cell cycle analysis (BrdU incorporation in vitro) in murine melanoma cell lines. In kind it is cell-based. The conditions noted are these: 24 hours treatment. The source says: FIG. 2C is a set of graphs showing the dose-response curves for cell cycle analysis in murine (KPTR1, KPTR4 and KPTR5 from TyrRAS+Ink4a/Arf−/−mice) melanoma cell lines. […] The percentage of cells in the G1 phase is indicated by the data shown in the closed squares. The percentage of cells in the S phase is shown by the data in the open triangles. The percentage of cells in the G2/M phase is indicated by the data in the open circles. The percentage of cells actively proliferating as marked by Ki67 positive staining is shown in closed diamonds. Error bars are +/− the standard error of the mean (SEM).
Cell Lines: KPTR1, KPTR4. and KPTR5 were derived from tumor-bearing TyrRAS+Ink4a/Arf−/− by standard procedures and cultured in RPMI+10% fetal bovine serum (FBS). Telomerized HDFs (tHDFs, also known as HS68) were cultured in DMEM+10% FBS with penicillin and streptomycin. […]
BrdU Incorporation in vitro: Cells were plated and allowed to adhere overnight or at least 6 hours prior to adding CDK4/6 inhibitor at the indicated concentrations. […] The cells were then washed, trypsinized, pelleted, fixed, permeabilized, stained, and measured on a flow cytometer as described in manufacturer directions for the BrdU Kit (BD Biosciences Pharmingen, San Diego, Calif., United States of America).
A general note: Dividing cells build labelled thymidine or BrdU into new DNA.

Bounds are passed on as bounds.

Consider `CC(=O)c1c(C)c2cnc(Nc3ccc(N4CCNCC4)cn3)nc2n(C2CCCC2)c1=O` [PD0332991, 6-acetyl-8-cyclopentyl-5-methyl-2-(5-piperazin-1-yl-pyridin-2-ylamino)-8H-pyrido-[2,3-d]-pyrimidin-7-one], for which the “proliferation in CDK4/6 dependent normal murine tissues such as the pancreatic islet” value with pancreatic islet is on record as “abrogated proliferation”. For the same molecule, the entries for the “clonogenic cell survival after IR (area/cell ratio relative to DMSO)” value (in series [1]; with tHDF (HS68) cells) were “not in CDK4/6-independent cells” and “enhanced clonogenic cell survival”, respectively. Besides, in series [2], the “tolerability of dose and schedule” value is given as “well tolerated without evident toxicity”. The “persistence of therapeutic serum levels” value in series [3] was 10 to 20 h. Moreover, the “time until therapeutic serum levels are achieved” value in series [3] is over 30 min. Further, the bone marrow protection entry in series [4] was “marked bone marrow protection”. Besides, the anemia and thrombocytopenia result in series [4] (lethally irradiated mice (7.5 Gy)) is reported as “significantly ameliorated”. The results for the “protection/recovery of peripheral blood lineages” value in series [4] and in series [4] (listed as PD 0332991) were “beneficial effect on the recovery of all peripheral blood lineages” and “protects all lineages of blood cells”, respectively. Moreover, in series [4] (sub-lethal dose of TBI (6.5 Gy)), the “blood count nadirs and recovery” value was “diminished count nadirs and caused more rapid count recovery”. Besides, the “sensitivity of derivative tumor cell lines in vitro” value in series [5] is listed as “insensitive”.

In the case of `O=C1NC(=O)c2c1c1c3ccccc3[nH]c1c1[nH]c3cc(Br)ccc3c21` [Compound 2BrIC, 2-bromo-12,13-dihydro-5H-indolo[2,3-a]pyrrolo[3,4]-carbazole-5,6-dione], the “clonogenic cell survival after IR (area/cell ratio relative to DMSO)” value in the series on tHDF (HS68) cells is “enhanced clonogenic cell survival”. For the same molecule, in series [4], the bone marrow protection entry is given as “marked bone marrow protection”.

(Values after patent US20110224221A1, “HEMATOPOIETIC PROTECTION AGAINST IONIZING RADIATION USING SELECTIVE CYCLIN-DEPENDENT KINASE 4/6 INHIBITORS” (priority 2008, published 2011).)
